Measured values taken from PMC5077133, “Towards Development of Small Molecule Lipid II Inhibitors as Novel Antibiotics” (PLoS ONE, 2016).
Where two headings read alike, the source gives them in different places.

Key:
A. baumanii ATCC 19606 = assay: Antibacterial activity (MIC, broth dilution); assay type: cell-based, Acinetobacter baumanii; details: CLSI, in µg/mL
How it was run: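 MIC determined by broth dilution following CLSI standards, using A. baumanii ATCC 19606.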

E. aerogenes ATCC 13048 = assay: Antibacterial activity (MIC, broth dilution); assay type: cell-based; details: CLSI
Protocol: (§1) Determination of the Minimal Inhibitory Concentrations (MIC) by dilution was carried out by broth dilution according to CLSI standards.

E. cloacae ATCC 13047 = assay: Antibacterial activity (MIC, broth dilution); assay type: cell-based; details: CLSI
Protocol: as §1

[1] = system: K. pneumoniae NR-15410 (KPC); assay: Antibacterial activity (MIC, broth dilution); assay type: cell-based; details: CLSI
Protocol: as §1

[2] = system: K. pneumoniae NR-15411 (KPC); assay: Antibacterial activity (MIC, broth dilution); assay type: cell-based; details: CLSI
Protocol: as §1

P. aeruginosa PA01 = assay: Antibacterial activity (MIC, broth dilution); assay type: cell-based; details: CLSI
Protocol: as §1

P. aeruginosa X13273 = assay: Antibacterial activity (MIC, broth dilution); assay type: cell-based; details: CLSI, in µg/mL
Protocol: as §1

[3] = system: S. aureus HFH-30123 (MRSA); assay: Antibacterial activity (MIC, broth dilution); assay type: cell-based; details: CLSI
Protocol: as §1

S. aureus MRSA 1094 = assay: Antibacterial activity (MIC, broth dilution); assay type: cell-based; details: CLSI
Protocol: as §1

E. faecalis EF1509 = assay: MIC for the strain used in macromolecular synthesis assays; assay type: cell-based; details: Enterococcus faecalis
Protocol: as §1
(§2) The effect of compounds on the macromolecular synthetic pathways of E. faecalis EF1509 were measured as follows: Cells were grown at 35°C overnight on Tryptic Soy Agar Broth (Remel, Lenexa, KS), and growth from the plate was used to inoculate 15 ml of Mueller Hinton Broth. The culture was grown to early exponential growth phase (OD600 = 0.2 to 0.3) while incubating in a shaker at 35°C and 150 rpm. For each macromolecular assay, the test agents were added at either 0, 0.25, 0.5, 1, 2, or 4, -fold their respective MIC values for E. faecalis EF1509.

[4] = system: cell wall synthesis in E. faecalis EF1509; assay: Macromolecular synthesis assay: cell wall synthesis; assay type: cell-based; details: Enterococcus faecalis; E. faecalis EF1509, [14C] N-acetyl-glucosamine incorporation; read-out: IC50 inhibition of cell wall synthesis
Protocol: The effect of compounds on the macromolecular synthetic pathways of E. faecalis EF1509 were measured as follows: Cells were grown at 35°C overnight on Tryptic Soy Agar Broth (Remel, Lenexa, KS), and growth from the plate was used to inoculate 15 ml of Mueller Hinton Broth. The culture was grown to early exponential growth phase (OD600 = 0.2 to 0.3) while incubating in a shaker at 35°C and 150 rpm. For each macromolecular assay, the test agents were added at either 0, 0.25, 0.5, 1, 2, or 4, -fold their respective MIC values for E. faecalis EF1509. […] For cell wall synthesis, bacterial cells in early exponential growth phase were transferred to M9 minimal medium and added to 1.5 ml eppendorf tubes (100 μl/tube) containing various concentrations of test compound or control antibiotics (2.5 μl) at 40X the final concentration in 100% DMSO as described above. Following a 5 min incubation at 37°C, [^14C] N-acetyl-glucosamine (0.4 μCi/reaction) was added to each tube and incubated for 45 min in a 37°C heating block. Reactions were stopped through the addition of 100 μl of 8% SDS to each tube. […] After washing three times with 5 ml of 0.1% SDS, the filters were rinsed two times with 5 ml of deionized water, allowed to dry, and then counted using a Beckman LS3801 liquid scintillation counter.

[5] = system: DNA synthesis in E. faecalis EF1509; assay: Macromolecular synthesis assay: DNA synthesis; assay type: cell-based; details: Enterococcus faecalis; E. faecalis EF1509, [3H]Thymidine incorporation; read-out: IC50 inhibition of DNA synthesis
Protocol: as §2
(§3) For DNA and protein synthesis, 100 μl of cell culture reaching early exponential phase was added to triplicate wells containing various concentrations of test compound or control antibiotics (2.5 μl) at 40X the final concentration in 100% DMSO (0.1% methanol in water for Rifampicin). A 2.5% DMSO treated culture served as the “no drug” control for all experiments. Cells were added in 1.25X strength MHB to account for the volume of drug added to each reaction, or in M9 minimal medium for protein synthesis reactions. […] After washing five times with 200 μl per well of cold 5% TCA, the filters were allowed to dry, and then counted using a Packard Top Count microplate scintillation counter.

[6] = system: protein synthesis in E. faecalis EF1509; assay: Macromolecular synthesis assay: protein synthesis; assay type: cell-based; details: Enterococcus faecalis; E. faecalis EF1509, [3H]Leucine incorporation; read-out: IC50 inhibition of protein synthesis
Protocol: as §2, §3

[7] = Pharmacokinetic study in mice; assay type: in vivo, male CD1 mice; set-up: AUClast/D: unit not given here; details: for half-life / bioavailability: male, CD1, mouse
[8] = PO 5 mg/kg, male CD1 mice, 5 mg/kg
[9] = mouse, plasma, IV 2.5 mg/kg, male CD1 mice
[10] = mouse, plasma, PO 5 mg/kg, male CD1 mice

SMILES | Antibacterial activity (MIC) A. baumanii ATCC 19606 (A. baumanii ATCC 19606) | Antibacterial activity (MIC) E. aerogenes ATCC 13048 (E. aerogenes ATCC 13048) | Antibacterial activity (MIC) E. cloacae ATCC 13047 (E. cloacae ATCC 13047) | Antibacterial activity (MIC) K. pneumoniae NR-15410 (KPC) [1] | Antibacterial activity (MIC) K. pneumoniae NR-15411 (KPC) [2] | Antibacterial activity (MIC) P. aeruginosa PA01 (P. aeruginosa PA01) | Antibacterial activity (MIC) P. aeruginosa X13273 (P. aeruginosa X13273) | Antibacterial activity (MIC) S. aureus HFH-30123 (MRSA) [3] | Antibacterial activity (MIC) S. aureus MRSA 1094 (S. aureus MRSA 1094) | MIC (E. faecalis EF1509) | IC50 [4] | IC50 [5] | IC50 [6] | further results
CN(C)c1ccc(/C=C/c2cc(-c3ccc(Br)cc3)cc(-c3ccc(Br)cc3)[o+]2)cc1 [6jc48-1] | >=64 | ≥ 64 µg/mL | ≥ 64 µg/mL | ≥ 64 µg/mL | ≥ 64 µg/mL | ≥ 64 µg/mL | >=64 | 32 µg/mL | 32 µg/mL | 4 µg/mL | 3.8 µg/mL | 8.3 µg/mL | 50.4 µg/mL | AUClast/D ([7]; IV […], male CD1 mice): 536±47; AUCExtrap ([7]; PO 5 mg/kg, male CD1 mice): 48.6%; AUClast/D ([7]; PO 5 mg/kg, male CD1 mice): 9.4; Vss_obs ([7]; PO 5 mg/kg, male CD1 mice): 1.75 L/kg; Finf (bioavailability) [7, 8]: 2.54%; T1/2 [7, 8]: 2.78 h; half-life ([7]; plasma, iv, […], male CD1 mice): > 13 h; half-life ([7]; plasma, po, 5 mg/kg, PO 5 mg/kg, male CD1 mice): ~3 h; bioavailability ([7]; plasma, po, 5 mg/kg, PO 5 mg/kg, male CD1 mice, read-out: Finf (bioavailability)): ~2.5%; bioavailability ([7]; plasma, po, 5 mg/kg, PO 5 mg/kg, male CD1 mice, read-out: Flast (bioavailability)): 1.9%; AUC(0-inf) [7, 9]: 1770 ± 120 ng·h/mL; AUC(0-t) [7, 9]: 1340 ± 117 ng·h/mL; Cmax [7, 9]: 1040 ± 323 ng/mL; MRT [7, 9]: 7.29 ± 0.27 h; clearance ([7]; mouse, plasma, IV 2.5 mg/kg, male CD1 mice, read-out: Cl_obs): 23.6 ± 1.7 mL/min/kg; AUC(0-inf) [7, 10]: 90 ng·h/mL; AUC(0-t) [7, 10]: 46.9 ng·h/mL; Cmax [7, 10]: 19.1 ng/mL
CN1/C(=C/C=C/c2cc(-c3ccccc3)cc(-c3ccccc3)[o+]2)C(C)(C)c2ccccc21 [BAS-00127538, (1-Methyl-2,4-diphenyl-6-((1E,3E)-3-(1,3,3-trimethylindolin-2-ylidene)prop-1-en-1-yl)pyryl-1-ium) tetrafluoroborate, reference compound] | 4 | 16 µg/mL | 32 µg/mL | 8 µg/mL | 16 µg/mL | 64 µg/mL | >=64 | 0.5 µg/mL | 0.5 µg/mL | 2 µg/mL | 1.1 µg/mL | 1.8 µg/mL | 1.6 µg/mL | Detection in plasma upon oral administration ([7]; oral administration (not shown)): could not be detected
